From patent publication US9221761B2, “Method for inhibition of deubiquitinating activity” (Vivolux AB, priority 2011, dated 2015)

How the values were obtained:
HCT116 = assay: FMCA (Fluorometric Microculture Cytotoxicity Assay) cytotoxicity; assay type: cell-based; details: 72 hours of continuous compound exposure
Method: FIGS. 1a to 1o are diagrams illustrating induction of dose-dependent cytotoxicity after 72 hours of continuous compound exposure to the reporter cell line HCT-116 by embodiments of the compound of the invention, as measured FMCA (Fluorometric Microculture Cytotoxicity Assay), as well as absence of such induction by structurally related compounds not comprised by the invention. Treated cells were compared to untreated controls (survival index);
Determination of cell apoptosis and viability. For determination of apoptosis parental HCT-116 p53+/+ cells are treated with the increasing doses of the compound of the invention for 24 h. […] HCT-116 cells are seeded in 96-well microtiter plates at 10,000 cells per well and incubated overnight. Cells are treated with indicated drug for 24 h. At the end of the incubation period, NP40 is added to the tissue culture medium to 0.1% and 25 μl of the content of each well was assayed using the M30-Apoptosense® ELISA as previously described (31). Cell viability is determined by measuring acid phosphatase activity or using the FMCA method (32). For the acid phosphatase activity cells are seeded at 5000 cells per well in 96-well culture plates and incubated for 12 h at 37° C. Compounds are added to the cells in growth media and incubated for 72 h at 37° C. Cells are washed with 200 μl warm PBS. 100 μl of para-nitrophenyl phosphate (pNPP, 2 mg/ml) in Na acetate buffer pH 5 (NaAc 0.1 M, 0.1% Triton-X-100) is added per well. Cells are incubated for 2 h after which reaction was stopped by addition of 1N NaOH. Absorbance is measured at 405 nm. The dose-dependent cytotoxicity of a number of embodiments of the compound of the invention is illustrated in FIGS. 1a-1o.
For the FMCA assay cells are seeded in the drug-prepared 384-well plates using the pipetting robot Precision 2000 (Bio-Tek Instruments Inc., Winooski, Vt.). The plates are incubated for 72 h and then transferred to an integrated HTS SAIGAN Core System consisting of an ORCA robot (Beckman Coulter) with CO2 incubator (Cytomat 2C, Kendro, Sollentuna, Sweden), dispenser module (Multidrop 384, Titertek, Huntsville, Ala.), washer module (ELx 405, Bio-Tek Instruments Inc), delidding station, plate hotels, barcode reader (Beckman Coulter), liquid handler (Biomek 2000, Beckman Coulter) and a multipurpose reader (FLUOstar Optima, BMG Labtech GmbH, Offenburg, Germany) for automated FMCA. Survival index (SI) is defined as the fluorescence of test wells in percentage of controls with blank values subtracted.
FIGS. 3b, 3d, 3f are diagrams illustrating the cytotoxicity of compounds of the invention nos. 1546, 1547, and 1570 with a 7-membered ring moiety in comparison to structurally corresponding compounds not comprised by the invention with a 6-membered ring moiety. Their induction of dose-dependent cytotoxicity was determined after 72 hours of continuous compound exposure to the reporter cell line HCT-116. Treated cells were compared with untreated controls. Cytotoxicity is visualized as survival index (SI) over the range of about 90% SI to about 0% SI in dependence on compound concentration.

[1] = test system: MelJuSo Ub-YFP reporter cell line; assay: Proteasome inhibition in reporter cell line, YFP accumulation in IncuCyte-FLR; assay type: cell-based; details: YFP accumulation measured for 48 hours; for MeJuSo-UB, lowest effective conc.: Table 2; for MeJuSo-UB, IncuCyte lowest effective conc.: Table 1
Excerpt: Cell culture. MCF7 cells are maintained in MEM/10% fetal calf serum. HCT-116 p53+/+, p53−/−, Bcl-2+/+, PUMA−/− and BAX−/− cells are maintained in McCoy's 5A modified medium/10% fetal calf serum. The HCT-116 p53+/+, p53−/−, PUMA−/− and BAX−/− are generated as described (25). The HCT-116 Bcl-2+/+ cell line was generated by transfecting parental HCT-116 p53+/+ cells with pCEP4 Bcl-2 (Addgene plasmid 16461) (26) and isolating high expression clones. FaDu and LLC3 cells are maintained in DMEM high glucose medium supplemented with 10% fetal calf serum, Na pyruvate, Hepes and non-essential amino acids. 4T1.12B carcinoma cells are maintained in RPMI medium supplemented with 10% fetal calf serum. The proteasome reporter cell line MelJuSo Ub-YFP was generated as described (12). Cells were maintained in Dulbecco's Modified Eagle's Medium/10% fetal calf serum. […] The retinal epithelial cell line was generated as described (28). All cells are maintained at 37° C. in 5% CO2.
The compound of the invention induces proteasome inhibition. The reporter cell line MelJuSo Ub-YFP, which is engineered to accumulate yellow fluorescent protein (YFP) upon proteasome inhibition (12), was used for compound evaluation. The accumulation of YFP was measured for 48 hours in an IncuCyte-FLR system (Essen Bioscience, Essen, UK), which is an automated fluorescence microscope. Numbers of positive cells per field were used as a measure of proteasome inhibition.

Compound	MeJuSo-UB, lowest effective conc. [1] [µM]	MeJuSo-UB, IncuCyte lowest effective conc. [1] [µM]	IC50 (HCT116; Table 1) [µM]	also measured
O=C(O)C(F)(F)F.O=C1/C(=C/c2ccc([N+](=O)[O-])cc2)CCN(C(=O)[C@H]2CCCN2)C/C1=C\c1ccc([N+](=O)[O-])cc1 [Compound 1505, (2R)-2-{[(3E,5E)-3,5-bis[(4-nitrophenyl)methylidene]-4-oxoazepan-1-carbonyl}pyrrolidinium trifluoroacetate]				IC50 (HCT116; Table 2): 5.2 µM
O=C(O)C(F)(F)F.O=C1/C(=C/c2ccc([N+](=O)[O-])cc2)CCN(C(=O)[C@H]2CCCN2)C/C1=C\c1ccc([N+](=O)[O-])cc1 [Compound 1505]	16			
CCOC(=O)CCC(=O)N1CC/C(=C\c2ccc([N+](=O)[O-])cc2)C(=O)/C(=C/c2ccc([N+](=O)[O-])cc2)C1.O=C(O)C(F)(F)F [Compound 1507, (3E,5E)-1-(4-ethoxy-4-oxobutanoyl)-3,5-bis[(4-nitrophenyl)methylidene]-4-oxoazepan-1-ium trifluoroacetate]	8			IC50 (HCT116; Homo sapiens, HCT-116, Table 2): 4.4 µM
O=C1/C(=C/c2ccccc2)CCNC/C1=C\c1ccccc1 [Compound 1516, (3E,5E)-3,5-Bis(phenylmethylidene)azepan-4-one]		1.2		
O=C1/C(=C/c2ccc(Cl)cc2)CCNC/C1=C\c1ccc(Cl)cc1 [Compound 1518, (3E,5E)-3,5-bis[(4-chlorophenyl)methylidene]azepan-4-one]		1.6		
O=C1C(=Cc2ccc(Cl)cc2)CCN(C(=O)C2CCC2)CC1=Cc1ccc(Cl)cc1 [Compound 1527]	2			
O=C1C(=Cc2cccc([N+](=O)[O-])c2)CCNCC1=Cc1cccc([N+](=O)[O-])c1 [Compound 1535]			5.9	
O=C1C(=Cc2ccccc2[N+](=O)[O-])CCNCC1=Cc1ccccc1[N+](=O)[O-] [Compound 1536]			6.9	
O=C1C(=Cc2ccc([N+](=O)[O-])cc2)CCNCC1=Cc1ccc([N+](=O)[O-])cc1 [Compound 1537]			4.1	
O=C1/C(=C/c2cccc([N+](=O)[O-])c2)CCNC/C1=C\c1ccccc1 [Compound 1560, (3E,5E)-5-[(3-nitrophenyl)methylidene]-3-(phenylmethylidene)azepan-4-one]				IC50 (HCT116; Homo sapiens, HCT-116, Table 1): 1 µM
O=C1C(=Cc2ccc(F)cc2)CCNCC1=Cc1ccc(F)cc1 [Compound 1561]		1	1	
O=C1C(=Cc2ccc(F)c([N+](=O)[O-])c2)CCNCC1=Cc1ccc(F)c([N+](=O)[O-])c1 [Compound 1562]		0.25	0.5	
CN1CC/C(=C\c2ccc([N+](=O)[O-])cc2)C(=O)/C(=C/c2ccc([N+](=O)[O-])cc2)C1 [Compound 1563, (3E,5E)-1-methyl-3,5-bis[(4-nitrophenyl)methylidene]azepan-4-one]		0.5		IC50 (HCT116; Homo sapiens, HCT-116, Table 1): 1.5 µM
CN1CCC(=Cc2ccc(F)cc2)C(=O)C(=Cc2ccc(F)cc2)C1 [Compound 1564]		16	0.9	
CN1CCC(=Cc2ccc(F)c([N+](=O)[O-])c2)C(=O)C(=Cc2ccc(F)c([N+](=O)[O-])c2)C1 [Compound 1565]		0.5	1.5	
CN1CCC(=Cc2cccc([N+](=O)[O-])c2)C(=O)C(=Cc2cccc([N+](=O)[O-])c2)C1 [Compound 1566]		0.5	2.3	
CC(=O)N1CCC(=Cc2ccc([N+](=O)[O-])cc2)C(=O)C(=Cc2ccc([N+](=O)[O-])cc2)C1 [Compound 1567]	0.5			IC50 (HCT116; Table 2): 0.6 µM

Compound	MeJuSo-UB, lowest effective conc. [1] [µM]	MeJuSo-UB, IncuCyte lowest effective conc. [1] [µM]	IC50 (HCT116; Table 1) [µM]	also measured
C=CC(=O)N1CCC(=Cc2ccc(F)cc2)C(=O)C(=Cc2ccc(F)cc2)C1 [Compound 1568]	2			IC50 (HCT116; Table 2): 1.5 µM
C=CC(=O)N1CCC(=Cc2ccc(F)cc2)C(=O)C(=Cc2ccc(F)cc2)C1 [Compound 1569]	4			IC50 (HCT116; Table 2): 2 µM
C=CC(=O)N1CCC(=Cc2cccc([N+](=O)[O-])c2)C(=O)C(=Cc2cccc([N+](=O)[O-])c2)C1 [Compound 1572]	0.5			IC50 (HCT116; Table 2): 2.5 µM
CCCN1CC/C(=C\c2ccc(F)cc2)C(=O)/C(=C/c2ccc(F)cc2)C1 [Compound 1574, (3E,5E)-3,5-bis[(4-fluorophenyl)methylidene]-1-propylazepan-4-one]		0.5		IC50 (HCT116; Homo sapiens, HCT-116, Table 1): 2.8 µM
COc1ccc(/C=C2\CNCC/C(=C\c3ccc([N+](=O)[O-])cc3)C2=O)cc1 [Compound 1575, (3E,5E)-3-[(4-methoxyphenyl)methylidene]-5-[(4-nitrophenyl)methylidene]azepan-4-one]		1		IC50 (HCT116; Homo sapiens, HCT-116, Table 1): 2.1 µM
COc1ccc(C=C2CNCCC(=Cc3ccc(F)cc3)C2=O)cc1 [Compound 1576]		8	1.6	
COc1ccc(/C=C2\CN(C)CC/C(=C\c3ccc(F)cc3)C2=O)cc1 [Compound 1577, (3E,5E)-5-[(4-fluorophenyl)methylidene]-3-[(4-methoxyphenyl)methylidene]-1-methylazepan-4-one]		8		IC50 (HCT116; Homo sapiens, HCT-116, Table 1): 4.9 µM
COc1ccc(C=C2CN(C(C)=O)CCC(=Cc3ccc(F)cc3)C2=O)cc1 [Compound 1578]	8			IC50 (HCT116; Table 2): 7 µM
C=CC(=O)N1CCC(=Cc2ccc([N+](=O)[O-])cc2)C(=O)C(=Cc2ccc(OC)cc2)C1 [Compound 1580]	8			IC50 (HCT116; Table 2): 1.5 µM
COc1ccc(C=C2CN(C(C)=O)CCC(=Cc3ccc([N+](=O)[O-])cc3)C2=O)cc1 [Compound 1581]	8			IC50 (HCT116; Table 2): 7.2 µM
O=C1C(=Cc2ccc(F)cc2)CCNCC1=Cc1ccc(Cl)cc1 [Compound 1582]		2	1.7	
O=C1/C(=C/c2ccc(Cl)cc2)CCNC/C1=C\c1ccc([N+](=O)[O-])cc1 [Compound 1583, (3E,5E)-5-[(4-chlorophenyl)methylidene]-3-[(4-nitrophenyl)methylidene]azepan-4-one]		2		IC50 (HCT116; Homo sapiens, HCT-116, Table 1): 3.3 µM
O=C1C(=Cc2ccc(Cl)cc2)CCNCC1=Cc1ccc([N+](=O)[O-])cc1 [Compound 1584]		2	1.8	
O=C1C(=Cc2ccc(F)cc2)CCNCC1=Cc1ccc([N+](=O)[O-])cc1 [Compound 1585]		2	1.5	
O=C1C(=Cc2ccc(Cl)cc2)CCNCC1=Cc1ccc(F)cc1 [Compound 1586]		0.5	1.1	
CN1CCC(=Cc2ccc(F)cc2)C(=O)C(=Cc2ccc([N+](=O)[O-])cc2)C1 [Compound 1587]		1	3	
